Results reported in ChEMBL document CHEMBL3627688, “Structure-based hybridization, synthesis and biological evaluation of novel tetracyclic heterocyclic azathioxanthone analogues as potential antitumor agents” (Eur J Med Chem, 2015).
pIC50: −log10 of the molar value. Active and inactive are the calls of the source. No cut-off for these calls is given here.

Columns and labels:
DU-145 = experiment: Antiproliferative activity against human DU145 cells assessed as cell viability incubated for 72 hrs by MTT assay; type: functional, cell-based; settings: DU-145, 72 h
PC-3 = experiment: Antiproliferative activity against human PC3 cells assessed as cell viability incubated for 72 hrs by MTT assay; type: functional, cell-based; settings: PC-3, 72 h
[1] = target: DNA topoisomerase 2-alpha (Homo sapiens) (UniProt P11388); experiment: Inhibition of human recombinant topoisomerase 2 alpha assessed as blocking of supercoiled pHOT DNA relaxation at 50 uM incubated for 45 mins at 37 degC by ethidium bromide staining based agarose gel electrophoresis
DNA topoisomerase 2-alpha (Homo sapiens), sequence (P11388 whole entry): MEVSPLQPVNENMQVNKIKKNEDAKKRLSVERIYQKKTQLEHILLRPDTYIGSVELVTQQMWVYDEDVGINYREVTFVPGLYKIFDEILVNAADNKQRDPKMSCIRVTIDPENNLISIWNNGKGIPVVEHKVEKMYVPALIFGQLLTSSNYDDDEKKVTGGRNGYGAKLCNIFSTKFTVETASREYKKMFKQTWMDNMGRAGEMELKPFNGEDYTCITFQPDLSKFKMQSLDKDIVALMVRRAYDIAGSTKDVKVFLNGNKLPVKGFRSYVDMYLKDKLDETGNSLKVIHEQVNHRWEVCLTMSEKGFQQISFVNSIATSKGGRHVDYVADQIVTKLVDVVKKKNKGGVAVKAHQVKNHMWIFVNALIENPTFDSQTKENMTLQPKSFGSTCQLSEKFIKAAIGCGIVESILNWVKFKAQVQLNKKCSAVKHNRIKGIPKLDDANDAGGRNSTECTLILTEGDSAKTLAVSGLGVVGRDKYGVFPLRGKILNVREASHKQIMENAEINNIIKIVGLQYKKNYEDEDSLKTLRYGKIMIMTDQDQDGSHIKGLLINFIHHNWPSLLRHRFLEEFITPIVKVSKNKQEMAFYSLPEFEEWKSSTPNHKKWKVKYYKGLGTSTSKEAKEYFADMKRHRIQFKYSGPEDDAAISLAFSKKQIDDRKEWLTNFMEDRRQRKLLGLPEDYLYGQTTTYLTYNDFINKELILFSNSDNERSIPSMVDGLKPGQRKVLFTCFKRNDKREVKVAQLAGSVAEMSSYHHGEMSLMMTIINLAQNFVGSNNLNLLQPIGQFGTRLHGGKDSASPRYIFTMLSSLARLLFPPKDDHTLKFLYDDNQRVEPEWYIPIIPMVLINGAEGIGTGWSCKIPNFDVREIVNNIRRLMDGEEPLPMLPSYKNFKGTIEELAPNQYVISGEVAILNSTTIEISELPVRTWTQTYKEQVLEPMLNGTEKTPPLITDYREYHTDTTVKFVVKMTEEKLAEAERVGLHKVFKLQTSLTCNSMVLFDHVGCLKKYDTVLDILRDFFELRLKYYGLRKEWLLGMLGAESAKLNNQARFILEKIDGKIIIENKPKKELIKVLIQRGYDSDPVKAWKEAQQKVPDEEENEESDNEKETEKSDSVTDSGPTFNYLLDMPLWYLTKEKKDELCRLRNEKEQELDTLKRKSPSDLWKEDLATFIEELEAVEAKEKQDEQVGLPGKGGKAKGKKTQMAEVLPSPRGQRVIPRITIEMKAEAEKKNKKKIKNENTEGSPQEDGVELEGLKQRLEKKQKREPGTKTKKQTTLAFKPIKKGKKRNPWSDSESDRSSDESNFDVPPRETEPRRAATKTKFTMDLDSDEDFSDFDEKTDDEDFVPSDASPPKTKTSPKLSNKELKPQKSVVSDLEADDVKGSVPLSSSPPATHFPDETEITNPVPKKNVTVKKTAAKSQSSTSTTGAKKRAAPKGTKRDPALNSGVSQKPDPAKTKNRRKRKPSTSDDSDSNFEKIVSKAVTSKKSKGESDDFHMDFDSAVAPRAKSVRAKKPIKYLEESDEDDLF

[2] = target: DNA topoisomerase 1 (Homo sapiens) (UniProt P11387); experiment: Inhibition of human recombinant topoisomerase 1 assessed as blocking of supercoiled pHOT DNA relaxation at 50 uM incubated for 25 mins at 37 degC by ethidium bromide staining based agarose gel electrophoresis
DNA topoisomerase 1 (Homo sapiens), sequence (P11387 whole entry): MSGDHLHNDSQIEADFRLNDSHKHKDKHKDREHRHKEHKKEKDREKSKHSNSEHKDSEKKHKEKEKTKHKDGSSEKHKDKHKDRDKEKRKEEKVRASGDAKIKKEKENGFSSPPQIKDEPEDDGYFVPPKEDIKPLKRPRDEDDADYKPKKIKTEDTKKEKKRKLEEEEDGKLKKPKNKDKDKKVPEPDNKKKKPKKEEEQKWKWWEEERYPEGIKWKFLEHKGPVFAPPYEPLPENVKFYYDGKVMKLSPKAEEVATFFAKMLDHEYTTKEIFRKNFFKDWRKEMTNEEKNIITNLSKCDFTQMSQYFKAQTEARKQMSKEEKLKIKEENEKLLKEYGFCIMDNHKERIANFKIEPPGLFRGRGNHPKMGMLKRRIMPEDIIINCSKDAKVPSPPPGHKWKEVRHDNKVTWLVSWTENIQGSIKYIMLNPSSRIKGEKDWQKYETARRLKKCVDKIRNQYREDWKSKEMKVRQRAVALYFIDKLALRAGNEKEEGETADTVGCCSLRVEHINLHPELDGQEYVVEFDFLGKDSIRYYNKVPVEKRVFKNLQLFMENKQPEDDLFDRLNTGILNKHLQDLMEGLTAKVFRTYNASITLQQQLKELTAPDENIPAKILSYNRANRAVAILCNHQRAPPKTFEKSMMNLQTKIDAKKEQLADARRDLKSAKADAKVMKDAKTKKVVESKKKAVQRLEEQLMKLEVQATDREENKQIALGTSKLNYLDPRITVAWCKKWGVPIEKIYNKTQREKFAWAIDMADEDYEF

SMILES	pIC50 (DU-145)	pIC50 (PC-3)	inhibition [1]	inhibition [2]
CC[C@@]1(O)C(=O)OCc2c1cc1n(c2=O)Cc2cc3ccccc3nc2-1 [CAMPTOTHECIN]	7.00	7.00		
O=c1c2cc(Cl)ccc2sc2c(N3CCC(Cc4ccccc4)CC3)nc3ccccc3c12	< 4.82	< 4.82		
O=c1c2cc(Cl)ccc2sc2c(N3CCCCC3)nc3ccccc3c12	4.87	< 4.82		
O=c1c2cc(Cl)ccc2sc2c(N3CCC(O)CC3)nc3ccccc3c12	4.95	5.02		Active

The remaining lines, values ahead:

pIC50 (DU-145)	pIC50 (PC-3)	inhibition [1]	inhibition [2]	SMILES
< 4.82	< 4.82			O=c1c2cc(Cl)ccc2sc2c(N3CCCC3)nc3ccccc3c12
< 4.82	< 4.82			O=c1c2cc(Cl)ccc2sc2c(N3CCSCC3)nc3ccccc3c12
4.99	4.85			O=c1c2cc(Cl)ccc2sc2c(N3CCC(N4CCCCC4)CC3)nc3ccccc3c12
6.40	5.36	Active		COc1cc([C@@H]2c3cc4c(cc3[C@@H](O[C@@H]3O[C@@H]5CO[C@@H](C)O[C@H]5[C@H](O)[C@H]3O)[C@H]3COC(=O)[C@H]23)OCO4)cc(OC)c1O [ETOPOSIDE]
5.04	5.20		Active	O=c1c2cc(Cl)ccc2sc2c(N3CCC(CCCC4CCNCC4)CC3)nc3ccccc3c12
6.92				COc1cccc2c1C(=O)c1c(O)c3c(c(O)c1C2=O)C[C@@](O)(C(=O)CO)C[C@@H]3O[C@H]1C[C@H](N)[C@H](O)[C@H](C)O1 [DOXORUBICIN]
